Laboratory results from US8071558B2, “Application of D-psicose to suppression of abnormal circadian increase in blood glucose level” (Rare Sugar Production Technical Research Laboratories, LLC., priority 2005, dated 2011).

How the values were obtained:
liver = conditions: in vivo; cited from earlier work
sucrase = target: T1, sucrase (Rattus norvegicus, UniProt P23739); assay: Sucrose administration experiment (inhibition of sucrase in vivo), plasma glucose; conditions: rats; for Plasma glucose level, 0 min: before sucrose 2 g/kg + test sugar 200 mg/kg; for Plasma glucose level, 30 min / Plasma glucose level, 60 min / Plasma glucose level, 90 min / Plasma glucose level, 120 min / ΔAUC of plasma glucose level: sucrose 2 g/kg + test sugar 200 mg/kg
T1 construct: from tissue; host or cells: small intestine of live male Wistar rats (oral sugar load)
Protocol: Sucrose 2 g/kg+L-arabinose 200 mg/kg (SA)
Sucrose 2 g/kg+D-xylose 200 mg/kg (SX)
Sucrose 2 g/kg+D-fructose 200 mg/kg (SF)
Sucrose 2 g/kg+D-psicose 200 mg/kg (SP)
Sucrose 2 g/kg+(fructose 150 mg/kg+psicose 50 mg/kg) (SFP)

maltase = assay: Maltose administration experiment (inhibition of maltase in vivo), plasma glucose; set-up: species or system rat; conditions: rats; for Plasma glucose level, 0 min: before maltose 2 g/kg + test sugar 200 mg/kg; for action to suppress the increase of blood glucose level: given simultaneously with maltose (experiment 2); for Plasma glucose level, 30 min / Plasma glucose level, 60 min / Plasma glucose level, 90 min / Plasma glucose level, 120 min / ΔAUC of plasma glucose level: maltose 2 g/kg + test sugar 200 mg/kg
Protocol: (§1) Thirty-six male Wistar rats of age 6 months are divided into 6 groups. The following sugars were given to the rats in the individual groups after 12-hour fasting. Before the administration and 30, 60, 90, 120 and 180 minutes after the administration, blood is drawn from the tail vein, to assay plasma glucose and insulin concentration.
2. Maltose 2 g/kg+L-arabinose 200 mg/kg (MA)
3. Maltose 2 g/kg+D-xylose 200 mg/kg (MX)
4. Maltose 2 g/kg+D-fructose 200 mg/kg (MF)
5. Maltose 2 g/kg+D-psicose 200 mg/kg (MP)
6. Maltose 2 g/kg+(fructose 150 mg/kg+psicose 50 mg/kg) (MFP)
(§2) Before the administration and 30, 60, 90, 120 and 180 minutes after the administration, plasma glucose level was assayed. The plasma glucose level 180 minutes later was used to calculate the area under the curve of plasma glucose level (ΔAUC).

Male Wistar rats = assay: Soluble starch administration experiment, plasma glucose; assay type: in vivo, rat; conditions: for Plasma glucose level, 0 min: before soluble starch 2 g/kg + test sugar 200 mg/kg; for action to suppress the increase of blood glucose level: given simultaneously with soluble starch (experiment 3); for Plasma glucose level, 30 min / Plasma glucose level, 60 min / Plasma glucose level, 90 min / Plasma glucose level, 120 min / ΔAUC of plasma glucose level: soluble starch 2 g/kg + test sugar 200 mg/kg
Protocol: as §1
1. Soluble starch 2 g/kg (SS)
2. Soluble starch 2 g/kg+L-arabinose 200 mg/kg (SSA)
3. Soluble starch 2 g/kg+D-xylose 200 mg/kg (SSX)
4. Soluble starch 2 g/kg+D-fructose 200 mg/kg (SSF)
5. Soluble starch 2 g/kg+D-psicose 200 mg/kg (SSP)
6. Soluble starch 2 g/kg+(fructose 150 mg/kg+psicose 50 mg/kg) (SSFP)
as §2

T1 sequence (P23739 whole entry): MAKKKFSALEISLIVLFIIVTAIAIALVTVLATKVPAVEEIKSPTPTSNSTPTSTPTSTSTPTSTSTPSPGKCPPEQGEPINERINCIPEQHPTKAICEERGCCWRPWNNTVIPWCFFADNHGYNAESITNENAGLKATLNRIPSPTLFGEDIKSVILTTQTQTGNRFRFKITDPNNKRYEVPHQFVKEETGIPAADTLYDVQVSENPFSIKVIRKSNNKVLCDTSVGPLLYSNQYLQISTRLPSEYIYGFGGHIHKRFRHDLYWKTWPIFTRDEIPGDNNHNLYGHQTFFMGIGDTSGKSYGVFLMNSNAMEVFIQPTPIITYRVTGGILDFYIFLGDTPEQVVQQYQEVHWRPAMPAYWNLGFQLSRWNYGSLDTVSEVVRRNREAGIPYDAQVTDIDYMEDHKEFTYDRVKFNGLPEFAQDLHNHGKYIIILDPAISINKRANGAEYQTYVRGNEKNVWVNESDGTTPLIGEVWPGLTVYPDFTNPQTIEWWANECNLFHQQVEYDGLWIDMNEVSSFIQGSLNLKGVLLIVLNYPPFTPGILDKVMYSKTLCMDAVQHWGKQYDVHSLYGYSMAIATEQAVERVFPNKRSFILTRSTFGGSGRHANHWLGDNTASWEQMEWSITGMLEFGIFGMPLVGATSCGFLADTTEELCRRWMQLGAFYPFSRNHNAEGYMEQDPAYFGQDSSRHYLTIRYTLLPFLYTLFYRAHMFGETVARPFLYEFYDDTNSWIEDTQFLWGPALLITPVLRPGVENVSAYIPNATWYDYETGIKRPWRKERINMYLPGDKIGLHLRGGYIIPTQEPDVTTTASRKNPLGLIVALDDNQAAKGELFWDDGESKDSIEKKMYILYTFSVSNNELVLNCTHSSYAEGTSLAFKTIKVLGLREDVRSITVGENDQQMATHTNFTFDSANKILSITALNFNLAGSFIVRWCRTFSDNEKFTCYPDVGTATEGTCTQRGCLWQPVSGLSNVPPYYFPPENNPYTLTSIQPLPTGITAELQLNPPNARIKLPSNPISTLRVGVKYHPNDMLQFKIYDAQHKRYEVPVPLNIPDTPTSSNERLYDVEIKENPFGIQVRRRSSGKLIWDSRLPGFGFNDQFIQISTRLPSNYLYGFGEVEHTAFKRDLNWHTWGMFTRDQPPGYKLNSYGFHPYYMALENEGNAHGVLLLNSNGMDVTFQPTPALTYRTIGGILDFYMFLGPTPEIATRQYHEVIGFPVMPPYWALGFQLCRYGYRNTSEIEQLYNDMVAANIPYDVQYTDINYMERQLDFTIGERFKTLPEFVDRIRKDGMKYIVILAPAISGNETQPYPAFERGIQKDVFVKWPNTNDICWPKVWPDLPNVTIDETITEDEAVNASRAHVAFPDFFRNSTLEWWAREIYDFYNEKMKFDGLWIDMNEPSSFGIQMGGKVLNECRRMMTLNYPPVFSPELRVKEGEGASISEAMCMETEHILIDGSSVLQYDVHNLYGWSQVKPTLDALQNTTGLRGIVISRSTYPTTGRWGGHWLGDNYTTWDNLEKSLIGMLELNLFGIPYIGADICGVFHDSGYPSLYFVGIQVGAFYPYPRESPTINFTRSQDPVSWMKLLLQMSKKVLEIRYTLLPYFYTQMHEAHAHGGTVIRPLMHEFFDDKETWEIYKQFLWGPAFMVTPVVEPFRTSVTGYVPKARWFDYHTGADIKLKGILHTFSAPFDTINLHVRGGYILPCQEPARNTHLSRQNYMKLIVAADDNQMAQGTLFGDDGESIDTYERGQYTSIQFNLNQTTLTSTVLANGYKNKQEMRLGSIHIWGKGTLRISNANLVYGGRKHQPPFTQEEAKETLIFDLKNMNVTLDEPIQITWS

O=C(CO)[C@@H](O)[C@@H](O)[C@H](O)CO [D-tagatose]
histological change of liver (liver): never involved any histological change of liver

O=C[C@H](O)[C@@H](O)[C@H](O)CO [D-xylose]
Plasma glucose level, 0 min (sucrase): 102 mg/dL | Plasma glucose level, 30 min (sucrase): 123 ± 11 b mg/dl | Plasma glucose level, 60 min (sucrase): 126 ± 12 b mg/dl | Plasma glucose level, 90 min (sucrase): 130 ± 13 b mg/dl | Plasma glucose level, 120 min (sucrase): 137 ± 16 mg/dL | ΔAUC of plasma glucose level (sucrase): 2646 min^− mg/dl | Plasma glucose level, 0 min (maltase): 86 ± 8 mg/dL | action to suppress the increase of blood glucose level (maltase): scarcely suppressed | Plasma glucose level, 30 min (maltase): 146 ± 14 mg/dL | Plasma glucose level, 60 min (maltase): 172 ± 12 a mg/dl | Plasma glucose level, 90 min (maltase): 166 ± 20 mg/dL | Plasma glucose level, 120 min (maltase): 150 ± 19 mg/dL | ΔAUC of plasma glucose level (maltase): 7765 min^− mg/dl | Plasma glucose level, 0 min (Male Wistar rats): 99 ± 10 mg/dL | action to suppress the increase of blood glucose level (Male Wistar rats): scarcely suppressed | Plasma glucose level, 30 min (Male Wistar rats): 141 ± 8 mg/dL | Plasma glucose level, 60 min (Male Wistar rats): 135 ± 12 mg/dL | Plasma glucose level, 90 min (Male Wistar rats): 138 ± 16 mg/dL | Plasma glucose level, 120 min (Male Wistar rats): 131 ± 12 mg/dL | ΔAUC of plasma glucose level (Male Wistar rats): 4040 min^− mg/dl

O=C[C@H](O)[C@@H](O)[C@@H](O)CO [L-arabinose]
Plasma glucose level, 0 min (sucrase): 93 mg/dL | Plasma glucose level, 30 min (sucrase): 139 ± 21 ab mg/dl | Plasma glucose level, 60 min (sucrase): 142 ± 21 ab mg/dl | Plasma glucose level, 90 min (sucrase): 139 ± 14 ab mg/dl | Plasma glucose level, 120 min (sucrase): 142 ± 18 mg/dL | ΔAUC of plasma glucose level (sucrase): 4978 min^− mg/dl | Plasma glucose level, 0 min (maltase): 89 ± 7 mg/dL | action to suppress the increase of blood glucose level (maltase): scarcely suppressed | Plasma glucose level, 30 min (maltase): 139 ± 16 mg/dL | Plasma glucose level, 60 min (maltase): 157 ± 22 ab mg/dl | Plasma glucose level, 90 min (maltase): 149 ± 21 mg/dL | Plasma glucose level, 120 min (maltase): 138 ± 22 mg/dL | ΔAUC of plasma glucose level (maltase): 6087 min^− mg/dl | Plasma glucose level, 0 min (Male Wistar rats): 97 ± 9 mg/dL | action to suppress the increase of blood glucose level (Male Wistar rats): scarcely suppressed | Plasma glucose level, 30 min (Male Wistar rats): 135 ± 20 mg/dL | Plasma glucose level, 60 min (Male Wistar rats): 129 ± 22 mg/dL | Plasma glucose level, 90 min (Male Wistar rats): 128 ± 22 mg/dL | Plasma glucose level, 120 min (Male Wistar rats): 119 ± 15 mg/dL | ΔAUC of plasma glucose level (Male Wistar rats): 3370 min^− mg/dl
